Structures are written as SMILES.

For three compounds, IC50, inhibition zone (IZ) and zone of inhibition results are on record in ChEMBL document CHEMBL2062499, “Synthesis of benzofuran based 1,3,5-substituted pyrazole derivatives: as a new class of potent antioxidants and antimicrobials--a novel accost to amend biocompatibility” (Bioorg Med Chem Lett, 2012).

One assay has as its system Liver microsomes. The assay can be described thus: Antioxidant activity in Wistar rat liver microsomes assessed as inhibition of microsomal lipid peroxidation after 15 mins by MDA-TBA assay. The format is functional, Microsome. Background: Microsomes from liver hold many membrane-bound enzymes, among them those of drug oxidation.
The nature of assay [1]: Antifungal activity against Chrysosporium keratinophilum MTCC 3017 at 1 mg/ml after 72 hrs by well plate method. The format is functional.
The test system of assay [2] is Escherichia coli. The assay can be described thus: Antibacterial activity Escherichia coli ATCC 25922 at 1 mg/ml after 24 hrs by well plate method. The following applies: ATCC 25922, 24 h, read-out: DIZ. It counts as functional.
Assay [3] deals with Candida albicans. As to the kind of experiment: Antifungal activity against Candida albicans MTCC 2827 at 0.5 mg/ml after 72 hrs by well plate method. It counts as functional. The settings on record: MTCC 2827, 72 h, read-out: DIZ.
The test system of assay [4] is Candida albicans. The assay can be described thus: Antifungal activity against Candida albicans MTCC 2827 at 1 mg/ml after 72 hrs by well plate method. It counts as functional. The settings on record: MTCC 2827, 72 h, read-out: DIZ.
Assay [5] deals with Pseudomonas aeruginosa. The assay can be described thus: Antibacterial activity Pseudomonas aeruginosa ATCC 27853 at 0.5 mg/ml after 24 hrs by well plate method. The format is functional. The settings on record: ATCC 27853, 24 h, read-out: DIZ.
The test system of assay [6] is Pseudomonas aeruginosa. As to the kind of experiment: Antibacterial activity Pseudomonas aeruginosa ATCC 27853 at 1 mg/ml after 24 hrs by well plate method. The format is functional. The settings on record: ATCC 27853, 24 h, read-out: DIZ.
Assay [7] can be described thus: Antifungal activity against Chrysosporium keratinophilum MTCC 3017 at 0.5 mg/ml after 72 hrs by well plate method. The format is functional.
Assay [8] deals with Aspergillus flavus. As to the kind of experiment: Antifungal activity against Aspergillus flavus MTCC 3306 at 0.5 mg/ml after 72 hrs by well plate method. It counts as functional. The settings on record: MTCC 3306, 72 h, read-out: DIZ.
Assay [9] relates to Staphylococcus aureus. The assay can be described thus: Antibacterial activity Staphylococcus aureus ATCC 25923 at 0.5 mg/ml after 24 hrs by well plate method. It counts as functional. The following applies: ATCC 25923, 24 h, read-out: DIZ.
For assay [10], the system named is Escherichia coli. As to the kind of experiment: Antibacterial activity Escherichia coli ATCC 25922 at 0.5 mg/ml after 24 hrs by well plate method. The format is functional. The following applies: ATCC 25922, 24 h, read-out: DIZ.
For assay [11], the system named is Aspergillus flavus. As to the kind of experiment: Antifungal activity against Aspergillus flavus MTCC 3306 at 1 mg/ml after 72 hrs by well plate method. It counts as functional. The settings on record: MTCC 3306, 72 h, read-out: DIZ.
The test system of assay [12] is Radical scavenging activity. The assay can be described thus: Antioxidant activity assessed as DPPH radical scavenging activity after 20 mins by UV-Vis spectrophotometric analysis. The format is functional.
Assay [13] relates to Staphylococcus aureus. The assay can be described thus: Antibacterial activity Staphylococcus aureus ATCC 25923 at 1 mg/ml after 24 hrs by well plate method. The format is functional. The settings on record: ATCC 25923, 24 h, read-out: DIZ.

`COc1cc(C2CC(c3cc4ccccc4o3)=NN2C(=O)Nc2ccc(O)cc2)ccc1O` (configuration not stated): the values for the IC50 (in the assay with Liver microsomes; in assay [12]) were 15 uM/ml and 17 uM/ml, respectively. Also, the inhibition zone (IZ) in assay [1] was 2 mm; in [7] it was 1 mm. Moreover, the zone of inhibition at 1000 µg/mL in the assay on Escherichia coli [2] is 3 mm; in the assay on Candida albicans [4], 4 mm; in the assay on Pseudomonas aeruginosa [6], 3 mm; in the assay with Aspergillus flavus [11], 3 mm; in the assay with Staphylococcus aureus [13], 2 mm. Also, the zone of inhibition at 500 µg/mL in the assay on Candida albicans [3] was determined as 2 mm; in the assay on Pseudomonas aeruginosa [5], 2 mm; with Aspergillus flavus [8], 2 mm; in the assay on Staphylococcus aureus [9] it was 1 mm; with Escherichia coli [10], 2 mm.
Consider `COc1cc(C2CC(c3cc4ccccc4o3)=NN2C(=O)Nc2ccc(C)cc2)ccc1O` (configuration not stated), for which the IC50 with Liver microsomes amounted to 44 uM/ml; in assay [12], 37 uM/ml. Further, the inhibition zone (IZ) in [1] stood at 3 mm; in assay [7], 1 mm. Also, the zone of inhibition at 1000 µg/mL in the assay on Escherichia coli [2] worked out at 5 mm; in the assay on Candida albicans [4], 3 mm; in the assay with Pseudomonas aeruginosa [6], 4 mm; with Aspergillus flavus [11], 3 mm; in the assay with Staphylococcus aureus [13], 4 mm. For the same compound, the zone of inhibition at 500 µg/mL in the assay on Candida albicans [3] is 1 mm; in the assay on Pseudomonas aeruginosa [5], 3 mm; with Aspergillus flavus [8], 2 mm; in the assay with Staphylococcus aureus [9] it was 3 mm; in the assay on Escherichia coli [10], 4 mm.
Take `COc1cc(C2CC(c3cc4ccccc4o3)=NN2C(=O)Nc2ccccc2)ccc1O` (configuration not stated): the IC50 came out at 116 uM/ml with Liver microsomes and 121 uM/ml in assay [12]. Further, the inhibition zone (IZ) amounted to 3 mm in [1] and 2 mm in assay [7]. The zone of inhibition at 1000 µg/mL was 2 mm with Escherichia coli [2]; 2 mm with Candida albicans [4]; 2 mm in the assay on Pseudomonas aeruginosa [6]; 2 mm in the assay with Aspergillus flavus [11]; 3 mm in the assay with Staphylococcus aureus [13]. The zone of inhibition at 500 µg/mL amounted to 1 mm with Candida albicans [3]; 1 mm with Pseudomonas aeruginosa [5]; 1 mm in the assay on Aspergillus flavus [8]; 2 mm in the assay on Staphylococcus aureus [9]; 1 mm in the assay on Escherichia coli [10].
